Data: patent US9366677B2, “Methods for analyzing biological macromolecular complexes and use thereof” (Max-Planck-Gesellshaft zur Foerderung der Wissenschaften …, priority 2011, dated 2016)
Entries after “also recorded” stand apart in the source; their conditions may differ.

Biological target: GroEL/GroES (Escherichia coli, UniProt P0A6F5)
Assay: Thermofluor (DSF) unfolding of equimolar GroEL/GroES with adenine nucleotides
Format: binding
Details: in the presence of the nucleotide
Description: In a next proof of principle for the validity of the method according to the present invention, it has been determined whether thermal unfolding was suitable to find small molecules, which stabilize molecular machines similarly as has been documented for single-domain proteins (Ericsson et al. 2006, Analytical Biochemistry, 357:289-298). For this the GroEL/GroES (homo-tetradecameric 800 kDa and homo-heptameric 70 kDa, respectively) chaperonin system has been analysed. Two important properties of the chaperonin system have been well documented in the literature (Sigler et al., 1998, Annual Reviews in Biochemistry, 67:581-608; Tang et al., 2006, Cell, 125:908-914). First, GroEL forms a double heptameric ring structure, which exposes hydrophobic residues on one face, where non-native substrate protein can bind. Second, the binding of adenine-nucleotides to GroEL induces a conformational change, which causes the previously exposed hydrophobic residues to be buried and is essential for GroES binding to one face of the GroEL double ring. Therefore, measurements according to the present invention of an equimolar GroEL/GroES should yield a high initial fluorescence owing to the solvent-exposed hydrophobic residues, which gradually decreases upon temperature ramping. […]

Chain of GroEL/GroES (P0A6F9 whole entry): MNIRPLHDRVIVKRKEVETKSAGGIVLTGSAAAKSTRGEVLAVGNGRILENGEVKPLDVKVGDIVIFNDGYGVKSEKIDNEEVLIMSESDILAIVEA
Chain of GroEL/GroES (P0A6F5 2-548): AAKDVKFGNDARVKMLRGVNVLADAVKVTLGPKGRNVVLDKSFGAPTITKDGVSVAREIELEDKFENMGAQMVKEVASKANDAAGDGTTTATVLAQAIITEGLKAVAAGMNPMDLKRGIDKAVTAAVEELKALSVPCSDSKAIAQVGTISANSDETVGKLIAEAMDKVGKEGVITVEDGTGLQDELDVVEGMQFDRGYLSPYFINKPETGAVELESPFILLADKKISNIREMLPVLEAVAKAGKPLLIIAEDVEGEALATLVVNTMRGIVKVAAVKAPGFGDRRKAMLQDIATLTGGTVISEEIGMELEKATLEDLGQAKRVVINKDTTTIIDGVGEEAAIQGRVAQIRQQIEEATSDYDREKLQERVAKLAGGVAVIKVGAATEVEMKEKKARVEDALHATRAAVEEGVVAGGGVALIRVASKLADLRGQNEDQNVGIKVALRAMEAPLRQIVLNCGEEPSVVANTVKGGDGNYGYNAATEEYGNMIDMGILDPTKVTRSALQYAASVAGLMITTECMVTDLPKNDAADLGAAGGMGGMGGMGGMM

For `Nc1ncnc2c1ncn2[C@@H]1O[C@H](COP(=O)(O)OP(=O)(O)OP(=O)(O)O)[C@@H](O)[C@H]1O` [ATP], the “unfolding transition of GroEL/GroES (complex formation)” value was “complexes are formed; also recorded: single—apparent two-state—unfolding transition”.

With `Nc1ncnc2c1ncn2[C@H]1C[C@H](O)[C@@H](COP(=O)(O)OP(=O)(O)OP(=O)(O)O)O1` [dATP] the “unfolding transition of GroEL/GroES (complex formation)” value was “complexes are formed; also recorded: single—apparent two-state—unfolding transition”.
